Consider five compounds from patent US6558923B2 (priority 1998, dated 2003).

Structures are written as SMILES.

Common to all, as to type: cell-based, HIV-1
Experiment [1] relates to NL4-3 reference virus. The experiment is described as follows: microbe, parasite or virus in culture. The conditions noted are these: Human immunodeficiency virus 1, NL43, read-out: Geometric-mean IC90.
Experiment [2] has as its system recombinant virus carrying gag-protease sequences from patient plasma.
Experiment [3] concerns recombinant virus carrying protease sequences from patient plasma.

The term IC90 denotes the concentration at which the effect reaches the 90% level. `CC(C)CN(C[C@@H](O)[C@H](Cc1ccccc1)NC(=O)O[C@H]1CCOC1)S(=O)(=O)c1ccc(N)cc1` [Amprenavir, amprenavir]: the IC90 in experiment [1] amounted to 54 nM.
As for `Cc1c(O)cccc1C(=O)N[C@@H](CSc1ccccc1)[C@H](O)CN1C[C@H]2CCCC[C@H]2C[C@H]1C(=O)NC(C)(C)C` [Nelfinavir, nelfinavir], in experiment [2], the “Sensitivity correlated with genotype” value is reported as “reduced sensitivity”. Besides, the IC90 in experiment [1] was 3.5 nM.
Take `CC(C)c1nc(CN(C)C(=O)N[C@H](C(=O)N[C@@H](Cc2ccccc2)C[C@H](O)[C@H](Cc2ccccc2)NC(=O)OCc2cncs2)C(C)C)cs1` [Ritonavir]: in experiment [2], the “Sensitivity correlated with genotype” value is given as “reduced sensitivity”. The IC90 in experiment [1] is 23 nM.
For `CC(C)(C)NC(=O)[C@@H]1CN(Cc2cccnc2)CCN1C[C@@H](O)C[C@@H](Cc1ccccc1)C(=O)N[C@H]1c2ccccc2C[C@H]1O` [Indinavir], the “Effect of increasing protease inhibitor concentrations on infectivity of recombinant particles” value in experiment [3] is “clear and gradual inhibition of single-cycle particle infectivity”. In addition, in experiment [2], the Reduction in sensitivity came out at 10 fold, the Sensitivity result is listed as “further reduced” and the “Sensitivity correlated with genotype” value was “reduced sensitivity”. Besides, in experiment [1], the IC90 worked out at 16 nM.
Consider `CC(C)(C)NC(=O)[C@@H]1C[C@@H]2CCCC[C@@H]2CN1C[C@@H](O)[C@H](Cc1ccccc1)NC(=O)[C@H](CC(N)=O)NC(=O)c1ccc2ccccc2n1` [Saquinavir], for which, in experiment [3], the “Change in IC90” value is reported as “prominent increase”; the “Effect of increasing protease inhibitor concentrations on infectivity of recombinant particles” value is “clear and gradual inhibition of single-cycle particle infectivity”; the “IC90 of pre-therapy recombinant viruses compared with the other protease inhibitors” value is reported as “always significantly lower”; the “Susceptibility of pre-therapy virus from patient B versus pre-therapy virus from patient A” value is given as “clearly less susceptible”. In experiment [2], the Reduction in sensitivity was 4 fold, the Sensitivity entry is “further reduced” and the “Sensitivity correlated with genotype” value was “resistance”. The IC90 in experiment [1] worked out at 28 nM.
